Assays:
[1] = design: method as in PMID 35248186; conditions: patients with RCC or UCC, COUGH-1 and COUGH-2; cited from earlier work
[2] = Safety and tolerability in studies 1 to 4; assay type: in vivo, human
Method: Safety and tolerability for all studies were determined using clinical assessments, including physical examinations, vital signs, standard laboratory tests, 12‐lead electrocardiograms, and adverse events (AEs).

[3] = cited from earlier work
[4] = tested on: MATE1/2K; conditions: cited from earlier work
[5] = tested on: organic anion transporter P1B1; design: method as in PMID 34821075; conditions: twice-daily gefapixant 45 mg; cited from earlier work

COc1cc(C(C)C)c(Oc2cnc(N)nc2N)cc1S(N)(=O)=O [gefapixant, Gefapixant]
24-hour cough frequency [1]: significantly reduced
serious AEs ([2]; all 4 studies): no serious AEs
severity of all AEs ([2]; all 4 studies): mild or moderate
most commonly reported AEs ([2]; studies 1 and 2): taste related
most common AE ([2]; studies 3 and 4): headache
excreted metabolites, share of the gefapixant dose [3]: 14%
terminal half-life (t1/2) [3]: ≈ 7 hours
effect of inhibiting MATE1/2K via pyrimethamine on gefapixant exposure [4]: does not meaningfully increase
effect on the pharmacokinetics of pitavastatin [5]: no effect
